Activity calls are given as the source filed them. No cut-off for these calls is given here.
Columns and labels:
Assay type in all cases: functional, organism-based
SARS-CoV-2 [1] = settings: Severe acute respiratory syndrome coronavirus 2; MA10; dose 10.0 mg/kg, route ip, time 36.0 hrs
Mus musculus [2] = settings: CD-1, dose 10.0 mg/kg, route ip, time 36.0 hrs
SARS-CoV-2 [3] = experiment: Antiviral activity against activity SARS-CoV-2 infected in human A549-ACE2 cells assessed as inhibition of viral replication pretreated with cells for 1 hrs followed by viral infected for 2 hrs and replacement with fresh medium containing compounds and measured 48 hrs post infection; settings: Severe acute respiratory syndrome coronavirus 2, A549-ACE2
Mus musculus [4] = settings: CD-1, dose 10.0 mg/kg, route ip, time 36.0 hrs; remark: listed apart in the source

CCN(CCN)c1ccc(Nc2cc(NC3CC3)n3ncc(C#N)c3n2)cc1-n1cnnc1
Activity (SARS-CoV-2 [1]): inactive
inhibition (Mus musculus [2]): inactive
IC50 (SARS-CoV-2 [3]): 390 nM
inhibition (Mus musculus [4]): inactive
